Measurements from patent US6566047B1, “Method for identifying neurite-growth promoting agents” (The Regents of the University of Colorado, priority 1998, dated 2003).

Legend:
[1] = system: cPLA2; assay: PLA2 activity (14C-AA release) in MAT-Lu cells; type: biochemical, rat; conditions: thrombin 200 nM
Procedure: MAT-Lu cells were plated at a density of 0.5×10^6 cells per flask (T-75) and grown as detailed above to approximately 25% confluency. On the day before the experiments, the serum level in the medium was dropped to 1%. Cells were fed with fresh 1% serum-medium 4 hrs prior to harvest. For harvesting, cells were rinsed with Ca^++,Mg^++-free HBSS, covered with 2 ml cold Ca^++-free modified Krebs buffer (220 mM sucrose, 50 mM NaCl, 5 mM KCl, 22 mM HEPES, 10 mM glucose. 1.2 mM NaH2PO4 and 1.2 mM MgCl2, pH 7.3), and placed on ice. Cells were scraped off, pelleted for 5 min at 200 rpm and re-suspended in a minimal volume of Krebs buffer. Aliquots were used to determine protein concentration (Biorad Assay) and phopholipase activity. To measure PLA2 activity 10-12 μg of cell protein was incubated with or without thrombin for 10 min on ice, ^14C-AA-labeled phospholipid substrate (7 μM. 40-60 mCi/mmol) was added, and the mixture was transferred to 37° for 20 min. The reaction was stopped by adding cold cliloroform/methanol (1:2 v/v). Lipid extraction followed by thin-layer chromatography (Negre-Aminou et al., J Neurochem 67:2599-2608 (1996)) isolated the reaction product (identified by co-migration with AA standard), which was then scraped off the plates and analyzed in a scintillation spectrometer (Beckman). In some experiments, especially those involving ^14C-AA-phosphatidylinositol as substrate, the diacylglycerol-containing band (identified by co-migration of standard) also was scraped and counted in order to measure phospholipase C (PLC) activity.

[2] = system: cPLA2; assay: cPLA2 activation in AT-2 cells; type: biochemical, rat
Procedure: FIG. 9. Thrombin activation of cPLA2 in AT-2 cells incubated with either ^14C-AA-PI, -PC or -PE as substrate, for 10 min at 37° C. Released AA and diacylglycerol were isolated and counted.

[3] = system: growth cones in cultures of rat cerebral cortex; assay: Growth cone collapse assay in cortical neuron culture; type: cell-based; conditions: thrombin 100 nM
Outline: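 Cortical explants from E18 Sprague-Dawley rats were grown 2–3 days on poly-D-lysine, serum-free after 24 h, then pre-incubated 30–60 min at 37 °C with inhibitor or vehicle before repellent factor challenge for 1–30 min. Collapse was graded in randomly selected growth cones in aldehyde-fixed cultures (fixed after 7 min) or imaged live.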

## thrombin: potent growth cone repellent; commercially available thrombin (Sigma); rat thrombin in Boyden assays
[1]
  increase of PLA2 activity (AA release), PE substrate: 40-50 fold
[2]
  stimulation of cPLA2, PC substrate: over 100 fold
  stimulation of cPLA2, PE substrate: about 30 fold
  stimulation of cPLA2, PI substrate: over 100 fold
[3]
  time until most growth cones are fully collapsed: 10 to 20 min
[3]; TRAP (100 mM), 12(S)-HETE 10^−7 M
  growth cone collapse, agent alone: most growth cones are fully collapsed
